From patent publication US9481648B2, “Kinase inhibitors” (Respivert Limited, priority 2013, dated 2016)
Like-named read-outs stand apart in the source and are kept apart here.

What was measured:
[1] = tested on: endotoxin (LPS)-induced uveitis in Lewis rats; assay: Endotoxin-induced uveitis in rats (in vivo vi); design: species or system rat; details: for Cell counts / IL-1β Anterior tissue / IL-1β Posterior tissue: Table 7c; for cytokine levels in both the anterior and posterior segments of the eyes: rats treated with intravitreal endotoxin LPS, topical dosing
Method: Male, Lewis rats (6-8 weeks old, Charles River UK Limited) are housed in cages of 3 at 19-21° C. with a 12 h light/dark cycle (07:00/19:00) and fed a standard diet of rodent chow and water ad libitum. Non-fasted rats are weighed, individually identified on the tail with a permanent marker, and receive a single intravitreal administration into the right vitreous humor (5 μL dose volume) of 100 ng/animal of LPS (Escherichia coli 0111:B4 prepared in PBS, Sigma Aldrich, UK) using a 32-gauge needle. Untreated rats are injected with PBS. […] Following euthanasia, the right eye of each animal is enucleated and dissected into front (anterior) and back (posterior) sections around the lens. Each section is weighed and homogenised in 500 μL of sterile phosphate buffered saline followed by 20 minutes centrifugation at 12000 rpm at 4° C.

[2] = target: c-Src (Homo sapiens (Human), UniProt P12931); assay: c-Src enzyme inhibition (FRET, Z-LYTE); type: biochemical
Chain of c-Src (P12931 whole entry, looked up): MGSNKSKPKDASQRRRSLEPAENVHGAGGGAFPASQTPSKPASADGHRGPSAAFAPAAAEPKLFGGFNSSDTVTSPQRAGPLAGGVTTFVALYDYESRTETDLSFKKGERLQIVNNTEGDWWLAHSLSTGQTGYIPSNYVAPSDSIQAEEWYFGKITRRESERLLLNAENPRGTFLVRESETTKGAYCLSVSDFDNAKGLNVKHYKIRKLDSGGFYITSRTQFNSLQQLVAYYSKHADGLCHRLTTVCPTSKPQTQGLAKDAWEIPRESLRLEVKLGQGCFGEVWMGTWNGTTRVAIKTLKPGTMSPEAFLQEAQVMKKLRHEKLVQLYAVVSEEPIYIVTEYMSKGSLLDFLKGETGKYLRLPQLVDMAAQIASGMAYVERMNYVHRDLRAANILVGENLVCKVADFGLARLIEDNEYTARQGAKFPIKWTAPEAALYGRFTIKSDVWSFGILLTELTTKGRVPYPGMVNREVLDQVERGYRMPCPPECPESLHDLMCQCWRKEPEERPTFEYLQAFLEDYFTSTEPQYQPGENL
Procedure, shortened: (§1)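 Syk or c-Src enzyme (3000 or 2000 ng/mL solutions) was preincubated 2 h at RT with compound solutions at 1, 0.1, 0.01 or 0.001 µg/mL. Z-LYTE FRET peptide (8 µM solution) and ATP (800 µM solution for c-Src, 60 µM for Syk) were then added for 1 h, followed by protease development for 1 h. Phosphorylation was read as the coumarin/fluorescein emission ratio.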

[3] = target: GSK 3α (Homo sapiens (Human), UniProt P49840); assay: GSK 3α enzyme inhibition (FRET, Z-LYTE; Method 2); type: biochemical; details: read-out: IC50 Values for Enzyme Inhibition GSK3α
Chain of GSK 3α (P49840 whole entry): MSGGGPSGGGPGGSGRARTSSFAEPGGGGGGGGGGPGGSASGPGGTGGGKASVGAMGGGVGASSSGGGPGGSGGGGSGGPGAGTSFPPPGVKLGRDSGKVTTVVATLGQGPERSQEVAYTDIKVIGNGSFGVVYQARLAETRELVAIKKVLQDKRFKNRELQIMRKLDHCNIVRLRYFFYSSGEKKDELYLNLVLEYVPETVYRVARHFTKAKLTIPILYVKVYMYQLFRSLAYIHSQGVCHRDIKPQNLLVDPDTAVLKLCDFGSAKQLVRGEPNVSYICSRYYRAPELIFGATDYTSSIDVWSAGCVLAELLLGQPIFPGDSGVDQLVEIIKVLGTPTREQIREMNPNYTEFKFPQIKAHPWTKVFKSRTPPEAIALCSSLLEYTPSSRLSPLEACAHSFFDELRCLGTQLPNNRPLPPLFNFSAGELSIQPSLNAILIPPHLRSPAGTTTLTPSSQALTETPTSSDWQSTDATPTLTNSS
Procedure, shortened: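 Z-LYTE FRET assay: GSK3-α (500 ng/mL stock) preincubated 105 min at RT with compound at 10, 1, 0.1 or 0.01 μg/mL stock. FRET peptide (8 μM stock) and ATP (40 μM stock) were then added for 1 h, followed by protease development for 1 h. Phosphorylation was read as coumarin/fluorescein emission ratio.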

[4] = target: CYP3A4 (Homo sapiens (Human), UniProt P08684); assay: CYP3A4 inhibition study; type: in vitro ADME; details: for inhibition at 15 µM: human, read-out: 15 μM % Inh
Chain of CYP3A4 (P08684 whole entry): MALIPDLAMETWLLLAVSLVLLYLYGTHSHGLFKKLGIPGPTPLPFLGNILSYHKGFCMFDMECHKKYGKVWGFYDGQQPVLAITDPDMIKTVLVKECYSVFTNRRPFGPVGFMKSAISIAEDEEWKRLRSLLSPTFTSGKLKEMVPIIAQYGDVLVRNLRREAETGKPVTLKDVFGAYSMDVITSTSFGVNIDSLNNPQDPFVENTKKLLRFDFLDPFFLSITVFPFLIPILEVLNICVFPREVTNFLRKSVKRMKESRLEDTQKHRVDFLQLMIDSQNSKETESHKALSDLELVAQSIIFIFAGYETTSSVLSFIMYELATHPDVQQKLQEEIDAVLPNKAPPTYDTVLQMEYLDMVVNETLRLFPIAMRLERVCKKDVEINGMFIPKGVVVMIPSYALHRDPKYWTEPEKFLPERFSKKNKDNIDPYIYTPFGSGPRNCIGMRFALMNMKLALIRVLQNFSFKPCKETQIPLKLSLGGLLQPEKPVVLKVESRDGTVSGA
Method: Assessment of certain in vitro ADME (absorption, distribution, metabolism, and excretion) parameters for certain compounds of the invention was conducted by BioFocus (Saffron Walden, UK).

[5] = target: Syk (Homo sapiens (Human), UniProt P43405); assay: Syk enzyme inhibition (FRET, Z-LYTE); type: biochemical
Procedure, shortened: as §1

[6] = target: p38 MAPKα (MAPK14) (Homo sapiens (Human), UniProt Q16539); assay: p38 MAPKα enzyme inhibition (FRET, Z-LYTE; Method 2); type: biochemical
Chain of p38 MAPKα (MAPK14) (Q16539 whole entry): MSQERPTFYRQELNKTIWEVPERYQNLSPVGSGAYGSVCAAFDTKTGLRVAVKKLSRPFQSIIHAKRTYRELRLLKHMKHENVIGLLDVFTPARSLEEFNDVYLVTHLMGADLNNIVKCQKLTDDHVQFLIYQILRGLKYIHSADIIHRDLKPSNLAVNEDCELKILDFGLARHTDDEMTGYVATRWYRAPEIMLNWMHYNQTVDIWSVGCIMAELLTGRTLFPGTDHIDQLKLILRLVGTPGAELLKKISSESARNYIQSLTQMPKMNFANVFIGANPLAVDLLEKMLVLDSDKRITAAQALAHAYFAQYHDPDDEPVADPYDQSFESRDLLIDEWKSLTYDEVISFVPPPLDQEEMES

[7] = tested on: β-catenin in d-U937 cells; assay: Accumulation of β catenin in d-U937 cells (assay m); type: cell-based, human
Procedure, shortened: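 U937 cells were differentiated with PMA (100 ng/mL) for 48–72 hr, then treated with compound or vehicle for 18 hr. After formaldehyde fixation, β-catenin was detected with a primary antibody and an HRP secondary using TMB (OD450–655). Signal was normalised to crystal violet cell staining (OD595).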

[8] = Plasma pharmacokinetics in rats, single intravenous or oral administration; type: in vivo, rat (male Wistar); details: rats
Method: Studies were conducted by Sai Life Sciences (Hinjewadi, Pune, India) to investigate the plasma pharmacokinetics and total colon tissue distribution of compounds of the invention. In particular, pharmacokinetic studies were carried out in: • male C57BL/6 mice, following a single oral administration; and • male Wistar rats following a single intravenous or oral administration.

[9] = tested on: TNBS-induced colitis in BDF1 mice; assay: TNBS-induced colitis in mice (in vivo iv); design: species or system mouse; details: for inflammatory cell infiltrate in the reticular and laminar propria zones / ulcer grade and epithelial repair compared to the vehicle control: 5 mg/kg orally, 2 days; for inflammatory cell infiltrate in the reticular and laminar propria zones / ulcer grade and epithelial repair compared to the vehicle control / activity in in vivo model of colonic inflammation (histopathology analysis): TNBS-induced colitis, mice; for LP inflammation / Ulcer grade: TNBS-induced colitis in mice, 5 mg/kg oral; for activity in in vivo model of colonic inflammation (histopathology analysis): conducted over 2 days
Method: Non-fasted, 10-12 week old, male BDF1 mice are dosed by oral gavage twice daily with either vehicle (5 mL/kg), reference item (Budesonide 2.5 mg/kg) or test compound (1 or 5 mg/kg) one day before (Day −1) stimulation of the inflammatory response by treatment with 2,4,6-trinitrobenzenesulphonic acid (TNBS) (15 mg/mL in 50% ethanol/50% saline). On Day 0 of the study TNBS (200 μL) is administered intra-colonically via a plastic catheter with BID dosing of the vehicle, reference or test compound continuing for 2 or 4 days. During the study, animals are weighed every day and stool observations are made and recorded as a score, based on stool consistency. At the time of sacrifice on Day 2 (or Day 4), the large intestine is removed and the length and weight recorded. Sections of the colon are taken for histopathology scoring to determine disease severity.

[10] = tested on: non-mutant kinases; type: binding; details: for number of individual kinase hits, S(1): non-mutant kinases with % Ctrl <1
Method: These assays may be conducted by DiscoverX (formerly Ambit; San Diego, Calif.). The percentage inhibition produced by incubation with a test compound may be calculated relative to the non-inhibited control.

[11] = Table 7a, eyes of LPS-stimulated rats, 1 mg/mL
[12] = male, Wistar, rat, plasma, intravenous 0.25 mg/kg
[13] = eyes of LPS-stimulated rats, 1 mg/mL

C[C@@H]1C[C@H]2[C@@H]3CCC4=CC(=O)C=C[C@]4(C)[C@@]3(F)[C@@H](O)C[C@]2(C)[C@@]1(O)C(=O)CO [Dexamethasone]
IL-1β Anterior [1, 11]: 553.5 ± 155.7 pg/mL
IL-1β Posterior [1, 11]: 365.6 ± 178.2 pg/mL
IL-6 Anterior [1, 11]: 1000.7 ± 126.2 pg/mL
IL-6 Posterior [1, 11]: 1723.4 ± 224.1 pg/mL
MCP-1 Anterior [1, 11]: 156.3 ± 50.8 pg/mL
MCP-1 Posterior [1, 11]: 95.2 ± 32.5 pg/mL

COc1cc(Nc2nccc(Oc3ccc(NC(=O)Nc4cc(C(C)(C)C)cc(NS(C)(=O)=O)c4OC)c4ccccc34)n2)cc(S(=O)(=O)C2CC2)c1 [Example 5]
IC50 [2]: 48 nM
IC50 [3]: 2870 nM
IC50 ([4]; CYP3A4, 0 min preincubation): > 15000 nM
IC50 ([4]; CYP3A4, 30 min preincubation): > 15000 nM
inhibition at 15 µM ([4]; CYP3A4, 0 min preincubation): 0%
inhibition at 15 µM ([4]; CYP3A4, 30 min preincubation): 27%
IC50 [5]: 1170 nM
IC50 [6]: 271 nM
% β-catenin induction ([7]; test compound 1 μg/mL): 10%
% β-catenin induction ([7]; test compound 5 μg/mL): 27%
% β-catenin induction ([7]; test compound 10 μg/mL): 19%

CNC(=O)c1cc(C(C)(C)C)cc(NC(=O)Nc2ccc(Oc3ccnc(Nc4cc(OC)cc(OCCOCCOCCOC)c4)c3)c3ccccc23)c1OC [Example 29, 5-(tert-Butyl)-2-methoxy-3-(3-(4-((2-((3-methoxy-5-(2-(2-(2-methoxyethoxy)ethoxy)-ethoxy)phenyl)amino)pyridin-4-yl)oxy)naphthalen-1-yl)ureido)-N-methylbenzamide]
IC50 [2]: 19 nM
AUC(0-inf) [8, 12]: 295 ng·h/mL
AUC(0-t) [8, 12]: 293 ng·h/mL
half-life [8, 12]: 42 min
C0 ([8]; male, Wistar, rat, plasma, intravenous 0.25 mg/kg in 5% DMSO-7.5% Solutol HS15-87.5% normal saline): 2500 ng/mL
Vd ([8]; male, Wistar, rat, plasma, intravenous 0.25 mg/kg, read-out: Vss): 0.3 L/kg
CI ([8]; intravenous 0.25 mg/kg): 14.2 mL/min/kg
IC50 [3]: 6320 nM
IC50 [5]: 96 nM
IC50 [6]: 26 nM
Cell counts [1, 13]: 33.0 ± 6.7
IL-1β Anterior tissue [1, 13]: 441.3 ± 138.5 pg/mL
IL-1β Posterior tissue [1, 13]: 272.1 ± 93.8 pg/mL
cytokine levels in both the anterior and posterior segments of the eyes [1]: significantly reduced
% β-catenin induction ([7]; test compound 1 μg/mL): 4%
% β-catenin induction ([7]; test compound 5 μg/mL): 7%
% β-catenin induction ([7]; test compound 10 μg/mL): −4%

COCCOCCOCCOc1cc(Nc2cc(Oc3ccc(NC(=O)Nc4cc(C(C)(C)C)cc(C(N)=O)c4OC)c4ccccc34)ccn2)cc(OC)c1 [Example 34, 5-(tert-Butyl)-2-methoxy-3-(3-(4-((2-((3-methoxy-5-(2-(2-(2-methoxyethoxy)ethoxy)ethoxy)phenyl)amino)pyridin-4-yl)oxy)naphthalen-1-yl)ureido)benzamide]
IC50 [2]: 19 nM
IC50 [3]: 9330 nM
IC50 [5]: 85 nM
IC50 [6]: 25 nM
inflammatory cell infiltrate in the reticular and laminar propria zones [9]: marked reduction
ulcer grade and epithelial repair compared to the vehicle control [9]: marked improvements
LP inflammation [9]: 2.6 ± 0.3
Ulcer grade [9]: 3.6 ± 0.2
activity in in vivo model of colonic inflammation (histopathology analysis) [9]: substantial activity
% β-catenin induction ([7]; test compound 1 μg/mL): 1%
% β-catenin induction ([7]; test compound 5 μg/mL): 7%
% β-catenin induction ([7]; test compound 10 μg/mL): −9%

COc1cc(Nc2cc(Oc3ccc(NC(=O)Nc4cc(C(C)(C)C)cc(NS(C)(=O)=O)c4OC)c4ccccc34)ccn2)cc(C(=O)NCCCN2CCOCC2)c1 [Example 66, 3-((4-((4-(3-(5-(tert-Butyl)-2-methoxy-3-(methysulfonamido)phenyl)ureido)naphthalen-1-yl)oxy)pyridin-2-yl)amino)-5-methoxy-N-(3-morpholinopropyl)benzamide]
IC50 [2]: 23 nM
IC50 [3]: 2430 nM
IC50 [5]: 330 nM
IC50 [6]: 140 nM
Cell counts [1, 13]: 28.0 ± 7.6
IL-1β Anterior tissue [1, 13]: 342.7 ± 145.3 pg/mL
IL-1β Posterior tissue [1, 13]: 209.9 ± 59.0 pg/mL
cytokine levels in both the anterior and posterior segments of the eyes [1]: significantly reduced
% β-catenin induction ([7]; test compound 1 μg/mL): 0%
% β-catenin induction ([7]; test compound 5 μg/mL): 6%
% β-catenin induction ([7]; test compound 10 μg/mL): 3%

COc1cc(Nc2cc(Oc3ccc(NC(=O)Nc4cc(C(C)(C)C)cc(NS(C)(=O)=O)c4OC)c4ccccc34)ccn2)cc(C(=O)NCCN2CCN(C)CC2)c1 [Example 79]
IC50 [2]: 35 nM
IC50 [3]: 4330 nM
IC50 [5]: 339 nM
IC50 [6]: 56 nM
inflammatory cell infiltrate in the reticular and laminar propria zones [9]: marked reduction
ulcer grade and epithelial repair compared to the vehicle control [9]: marked improvements
LP inflammation [9]: 3.5 ± 0.5
Ulcer grade [9]: 3.4 ± 0.6
activity in in vivo model of colonic inflammation (histopathology analysis) [9]: substantial activity
% β-catenin induction ([7]; test compound 1 μg/mL): −4%
% β-catenin induction ([7]; test compound 5 μg/mL): 1%
% β-catenin induction ([7]; test compound 10 μg/mL): 5%

COc1cccc(Nc2cc(Oc3ccc(NC(=O)Nc4cc(C(C)(C)C)cc(C(=O)NC5COC5)c4OC)c4ccccc34)ccn2)c1 [Example 81, 5-(tert-Butyl)-2-methoxy-3-(3-(4-((2-((3-methoxyphenyl)amino)pyridin-4-yl)oxy)naphthalen-1-yl)ureido)-N-(oxetan-3-yl)benzamide]
IC50 [2]: 58 nM
IC50 [3]: 4930 nM
IC50 [5]: 121 nM
IC50 [6]: 173 nM
% β-catenin induction ([7]; test compound 1 μg/mL): 4%
% β-catenin induction ([7]; test compound 5 μg/mL): 14%
% β-catenin induction ([7]; test compound 10 μg/mL): 13%

COCC(=O)Nc1cc(Oc2ccc(NC(=O)Nc3cc(C(C)(C)C)nn3-c3ccc(C)cc3)c3ccccc23)ccn1 [Reference Compound, N-(4-(4-(3-(3-tert-butyl-1-p-tolyl-1H-pyrazol-5-yl)ureido)naphthalen-1-yloxy)pyridin-2-yl)-2-methoxyacetamide, reference compound]
number of individual kinase hits, S(1) ([10]; 50 nM): 7
number of individual kinase hits, S(10) ([10]; 50 nM, non-mutant kinases with % Ctrl <10): 32
number of individual kinase hits, S(35) ([10]; 50 nM, non-mutant kinases with % Ctrl <35): 67
number of individual kinase hits, S(1) ([10]; 500 nM): 45
